In publication PMC10938783, “A novel pan-PI3K inhibitor KTC1101 synergizes with anti-PD-1 therapy by targeting tumor suppression and immune activation” (Molecular Cancer, 2024):

Test system: B16 cells gene expression
Assay: RNA-Seq (DEGs, GSEA, heatmaps) of B16 cells
Conditions: KTC1101 0.2μM, B16 cells, GSEA KEGG

COc1cc(N)cc2c1nc(C(F)F)n2-c1nc(N2CCCOCC2)nc(N2CCOCC2)n1 [KTC1101, 2-(difluoromethyl)-4-methoxy-1-(4-morpholino-6-(1,4-oxazepan-4-yl)-1,3,5-triazin-2-yl)-1H-benzo[d]imidazol-6-amine]
NES, mmu00600 Sphingolipid metabolism: -0.9518
NES, mmu00860 Porphyrin metabolism: -1.036
NES, mmu00980 Metabolism of xenobiotics by cytochrome P450: -1.182
NES, mmu00982 Drug metabolism - cytochrome P450: -1.185
NES, mmu01250 Biosynthesis of nucleotide sugars: -1.14
NES, mmu01522 Endocrine resistance: 0.9546
NES, mmu01523 Antifolate resistance: -0.7817
NES, mmu02010 ABC transporters: -0.733
NES, mmu03008 Ribosome biogenesis in eukaryotes: 0.4012
NES, mmu03015 mRNA surveillance pathway: -0.5314
NES, mmu03018 RNA degradation: -0.9036
NES, mmu03022 Basal transcription factors: -0.6056
NES, mmu03040 Spliceosome: -0.8341
NES, mmu03060 Protein export: -1.073
NES, mmu03082 ATP-dependent chromatin remodeling: 0.5087
NES, mmu03083 Polycomb repressive complex: 0.285
NES, mmu03250 Viral life cycle - HIV-1: -0.5849
NES, mmu03410 Base excision repair: 0.509
NES, mmu03420 Nucleotide excision repair: -0.5668
NES, mmu03430 Mismatch repair: -0.5004
NES, mmu03460 Fanconi anemia pathway: -1.065
NES, mmu04014 Ras signaling pathway: -1.059
NES, mmu04068 FoxO signaling pathway: 0.8311
NES, mmu04070 Phosphatidylinositol signaling system: -0.719
NES, mmu04071 Sphingolipid signaling pathway: -0.7752
NES, mmu04115 p53 signaling pathway: 0.8074
NES, mmu04120 Ubiquitin mediated proteolysis: -0.8155
NES, mmu04130 SNARE interactions in vesicular transport: -0.572
NES, mmu04136 Autophagy - other: 0.5764
NES, mmu04137 Mitophagy - animal: -1.12
NES, mmu04140 Autophagy - animal: -0.941
NES, mmu04144 Endocytosis: 0.5953
NES, mmu04146 Peroxisome: 0.8534
NES, mmu04148 Efferocytosis: 0.8875
NES, mmu04150 mTOR signaling pathway: -1.035
NES, mmu04152 AMPK signaling pathway: -1.036
NES, mmu04210 Apoptosis: 0.7025
NES, mmu04211 Longevity regulating pathway: 0.8953
NES, mmu04213 Longevity regulating pathway - multiple species: 0.9083
NES, mmu04215 Apoptosis - multiple species: 0.9536
NES, mmu04216 Ferroptosis: -1.019
NES, mmu04217 Necroptosis: -1.0231
NES, mmu04270 Vascular smooth muscle contraction: 0.9765
NES, mmu04360 Axon guidance: 1.086
NES, mmu04392 Hippo signaling pathway - multiple species: 1.0712
NES, mmu04514 Cell adhesion molecules: 1.133
NES, mmu04520 Adherens junction: 0.8769
NES, mmu04530 Tight junction: -0.672
NES, mmu04550 Signaling pathways regulating pluripotency of stem cells: 1.1205
NES, mmu04611 Platelet activation: 0.9386
NES, mmu04612 Antigen processing and presentation: 0.9078
NES, mmu04622 RIG-I-like receptor signaling pathway: 0.797
NES, mmu04623 Cytosolic DNA-sensing pathway: 1.118
NES, mmu04650 Natural killer cell mediated cytotoxicity: 0.8466
NES, mmu04658 Th1 and Th2 cell differentiation: 1.107
NES, mmu04660 T cell receptor signaling pathway: 0.5971
NES, mmu04662 B cell receptor signaling pathway: 0.8546
NES, mmu04666 Fc gamma R-mediated phagocytosis: -1.143
NES, mmu04670 Leukocyte transendothelial migration: 0.7018
NES, mmu04714 Thermogenesis: -1.042
NES, mmu04720 Long-term potentiation: 0.7614
NES, mmu04723 Retrograde endocannabinoid signaling: 1.004
NES, mmu04726 Serotonergic synapse: 1.185
NES, mmu04727 GABAergic synapse: 1.114
NES, mmu04728 Dopaminergic synapse: 0.9578
NES, mmu04730 Long-term depression: 1.063
NES, mmu04750 Inflammatory mediator regulation of TRP channels: 0.9151
NES, mmu04910 Insulin signaling pathway: 1.052
NES, mmu04912 GnRH signaling pathway: 1.125
NES, mmu04915 Estrogen signaling pathway: 0.9405
NES, mmu04916 Melanogenesis: 0.9564
NES, mmu04917 Prolactin signaling pathway: 0.9333
NES, mmu04920 Adipocytokine signaling pathway: 1.108
NES, mmu04929 GnRH secretion: -1.07
NES, mmu04930 Type II diabetes mellitus: 1.078
NES, mmu04932 Non-alcoholic fatty liver disease: -1.05
NES, mmu04934 Cushing syndrome: 0.9692
NES, mmu04936 Alcoholic liver disease: 0.7413
NES, mmu04960 Aldosterone-regulated sodium reabsorption: 1.176
NES, mmu04961 Endocrine and other factor-regulated calcium reabsorption: 0.9748
NES, mmu04962 Vasopressin-regulated water reabsorption: 1.132
